Measured values published in ChEMBL document CHEMBL1201862, “PubChem BioAssay data set” (2004).
One block for each compound: values may come before it. Active and inactive are the calls of the source.

How the values were obtained:
[1] = HepG2 cell cytotoxicity, dose response, cytotoxicity control, ATP luminescence, cherry-pick, set 6 (AID 1053125); assay type: functional, cell-based
cells [2] = assay: cells
cells [3] = settings: A549
[4] = cytotoxicity in COV434 cells, dose response, cytotoxicity control for PAX8 inhibitor project, cell-based, plate reader, dry powder, SA7 (AID 743145); assay type: functional
[5] = IOSE-T80 ovarian epithelial cell cytotoxicity, dose response, cytotoxicity control for PAX8 inhibitor project, plate reader, dry powder samples (AID 743045); assay type: functional, cell-based
[6] = NIH:OVCAR-3 ovarian cancer cell cytotoxicity, dose response, PAX8 inhibitor project, plate reader, dry powder samples (AID 743044); assay type: functional, cell-based
[7] = cytotoxicity in OVCAR4 cells, dose response, cytotoxicity control for PAX8 inhibitor project, cell-based, plate reader, dry powder, SA11 (AID 743150); assay type: functional; settings: OVCAR-4
[8] = PAX5 activity inhibitors, dose response, selectivity assay for PAX8 inhibitor project, cell-based, plate reader, dry powder samples (AID 743047); assay type: functional;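 further: HEK293 cells carrying a Pax5 driven CD19 promoter luciferase reporter; potency of inhibitors that lower reporter luminescence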
[9] = cytotoxicity toward NIH3T3 fibroblasts, dose response, counter-screen, cell-based, ATP luminescence, mouse fibroblasts (AID 2010); assay type: functional;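 further: cells exposed to compound for about 90 hours before reading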
[10] = cytotoxicity dependent on PAX8, dose response, cell-based, plate reader, dry powder (AID 743049); assay type: functional
[11] = cytotoxicity in OV-90 ovarian cancer cells, dose response, PAX8 inhibitor project, cell-based, plate reader, dry powder, SA8 (AID 743149); assay type: functional
Paired box protein Pax-8 = Paired box protein Pax-8 (Homo sapiens, UniProt Q06710); assay: inhibitors of PAX8-driven TPO luciferase reporter, dose response, RMG-I cells, cherry-pick (AID 687027); assay type: functional, cell-based;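 further: luciferase reporter driven by Pax8 target thyroperoxidase promoter measured by SteadyGlo luminescence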
[12] = inhibitors of intracellular T. cruzi replication, confirmation, NIH3T3 host cells, beta-gal luminescence (AID 2044); assay type: functional, cell-based;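 further: intracellular parasites grown in NIH/3T3 mouse fibroblasts as host cells; luminescent beta-galactosidase reporter signal from transgenic T. cruzi replicating inside host cells; inhibitors lower the luminescence signal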
[13] = PAX2 cell-based inhibition, dose response, selectivity assay for PAX8 inhibitor project, plate reader, dry powder samples (AID 743048); assay type: functional;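 further: HEK293 cells carrying a WT1 promoter luciferase reporter driven by expressed Pax2; potency is for inhibition of Pax2 driven reporter signal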
[14] = A2780 ovarian cancer cell cytotoxicity, dose response, cytotoxicity control, plate reader, dry powder samples (AID 743046); assay type: functional, cell-based
[15] = cytotoxicity in COV362 ovarian cancer cells, dose response, cytotoxicity control for PAX8 inhibitor project, cell-based, plate reader, dry powder, SA12 (AID 743144); assay type: functional
Cytochrome P450 3A4 = Cytochrome P450 3A4 (Homo sapiens, UniProt P08684);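 further: CYP3A4 tested as one member of a cytochrome P450 panel screen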
Kallikrein-7 = Kallikrein-7 (Homo sapiens, UniProt P49862); assay: Fluorescence Intensity-based biochemical primary high throughput dose response assay to identify activators of kallikrein-7 (K7) zymogen.
[16] = inhibitors of Vif binding to APOBEC3G peptide, primary screen, biochemical, TR-FRET, GST-Vif 1-94, biotin-A3G peptide, dose response retest (AID 1117319); assay type: functional;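 further: TR-FRET signal of purified GST-Vif binding a biotinylated A3G peptide; inhibitors lower the FRET signal by blocking Vif and A3G binding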
Protein Tat = Protein Tat (Human immunodeficiency virus type 1 group M subtype B (isolate HXB2)(HIV-1), UniProt P04608); assay type: functional;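 further: tat binding to TAR RNA read out by fluorescence polarization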
[17] = molecular target: T1, Neuropeptide Y receptor type 1 (Homo sapiens, UniProt P25929); assay type: functional;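 further: HEK293 cells with a CNG channel challenged with NPY then isoproterenol; potency as antagonist that reverses NPY suppression of cAMP signal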
T1 sequence (P25929 whole entry): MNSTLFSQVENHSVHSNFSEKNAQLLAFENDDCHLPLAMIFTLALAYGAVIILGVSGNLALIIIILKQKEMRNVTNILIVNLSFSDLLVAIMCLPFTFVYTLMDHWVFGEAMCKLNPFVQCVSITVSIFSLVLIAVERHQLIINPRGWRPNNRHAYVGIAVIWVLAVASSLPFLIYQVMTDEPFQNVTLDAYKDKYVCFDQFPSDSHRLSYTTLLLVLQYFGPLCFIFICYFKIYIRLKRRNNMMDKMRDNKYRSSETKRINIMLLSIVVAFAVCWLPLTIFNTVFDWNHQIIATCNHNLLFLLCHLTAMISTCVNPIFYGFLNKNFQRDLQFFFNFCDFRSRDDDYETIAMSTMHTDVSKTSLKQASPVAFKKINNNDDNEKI

Fatty acid synthase [18] = molecular target: T2, Fatty acid synthase (Homo sapiens, UniProt P49327); assay: FAS thioesterase domain inhibitors, dose response, biochemical, endpoint fluorescence intensity, uHTS hits (AID 624327); assay type: functional;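 further: fluorescence from hydrolysis of an O-methyl fluorescein acyl ester substrate by the enzyme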
Fatty acid synthase [19] = molecular target: T2, Fatty acid synthase; assay: FAS thioesterase domain inhibitors, dose response, biochemical, kinetic fluorescence intensity (AID 624326); assay type: functional;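 further: rate of fluorescence rise from hydrolysis of a fluorogenic O-methyl fluorescein ester substrate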
[20] = molecular target: T3, Neuropeptide Y receptor type 2 (Homo sapiens, UniProt P49146); assay type: functional, cell-based;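 further: HEK293 cells expressing the receptor and a CNG channel; stimulus was NPY near EC95 followed by isoproterenol to raise cAMP; antagonist potency measured as restoring cAMP signal that NPY suppresses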
T3 sequence (P49146 whole entry): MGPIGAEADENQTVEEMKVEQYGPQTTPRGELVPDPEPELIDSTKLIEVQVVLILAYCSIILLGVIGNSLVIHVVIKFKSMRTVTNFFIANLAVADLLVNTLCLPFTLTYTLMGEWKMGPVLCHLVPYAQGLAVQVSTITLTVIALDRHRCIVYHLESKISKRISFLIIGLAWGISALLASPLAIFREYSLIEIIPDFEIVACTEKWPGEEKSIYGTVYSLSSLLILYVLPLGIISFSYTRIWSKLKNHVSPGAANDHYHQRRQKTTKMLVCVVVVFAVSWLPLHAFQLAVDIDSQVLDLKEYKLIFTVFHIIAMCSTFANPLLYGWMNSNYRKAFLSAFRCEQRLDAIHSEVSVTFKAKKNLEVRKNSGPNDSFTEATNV

Fibrinogen beta chain [21] = molecular target: T4, Fibrinogen beta chain (Homo sapiens, UniProt P02675); assay: Fluorescence polarization-based biochemical high throughput dose response assay to identify inhibitors that disrupt the binding of a cyclic peptide (Tn7) to the fibrin proteolytic product D-Dimer and fragment E complex [DD(E )].
Fibrinogen beta chain [22] = molecular target: T4, Fibrinogen beta chain; assay: Fluorescence polarization-based biochemical high throughput dose response assay to identify inhibitors that disrupt the binding of a cyclic peptide (Tn6) to the fibrin proteolytic product D-Dimer and fragment E complex [DD(E )].
[23] = Jurkat T cell cytotoxicity, dose response, cytotoxicity control for P. falciparum gametocyte viability project, luminescence (AID 1117277); assay type: functional, cell-based;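 further: potency reflects loss of cellular ATP meaning fewer viable cells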
[24] = P. falciparum late gametocyte killing, dose response, luminescence (AID 1117278); assay type: functional, cell-based;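 further: gametocytes exposed to compound for 24 hours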
[25] = NIH-3T3 fibroblast cytotoxicity, dose response, cytotoxicity control, cell-based, fluorescence, Alamar Blue, secondary assay (AID 2327); assay type: functional;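 further: NIH-3T3 mouse fibroblasts cultured with fluconazole at 8 µg/mL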
[26] = molecular target: T5, Serine/threonine-protein phosphatase (Candida dubliniensis (strain CD36 / CBS 7987 / NCPF 3949 / NRRLY-17841) (Yeast), UniProt B9W6M3); assay: calcineurin pathway inhibitors in yeast reporter, dose response, S. cerevisiae, CDRE-lacZ, luminescence, secondary (AID 2388); assay type: functional, cell-based;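 further: yeast reporter cells carrying a calcineurin-responsive lacZ construct stimulated with calcium chloride; luminescent beta-galactosidase reporter signal in whole cells rather than isolated phosphatase activity; potency for inhibition where a drop in reporter signal means calcineurin blockade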
T5 sequence (B9W6M3 whole entry): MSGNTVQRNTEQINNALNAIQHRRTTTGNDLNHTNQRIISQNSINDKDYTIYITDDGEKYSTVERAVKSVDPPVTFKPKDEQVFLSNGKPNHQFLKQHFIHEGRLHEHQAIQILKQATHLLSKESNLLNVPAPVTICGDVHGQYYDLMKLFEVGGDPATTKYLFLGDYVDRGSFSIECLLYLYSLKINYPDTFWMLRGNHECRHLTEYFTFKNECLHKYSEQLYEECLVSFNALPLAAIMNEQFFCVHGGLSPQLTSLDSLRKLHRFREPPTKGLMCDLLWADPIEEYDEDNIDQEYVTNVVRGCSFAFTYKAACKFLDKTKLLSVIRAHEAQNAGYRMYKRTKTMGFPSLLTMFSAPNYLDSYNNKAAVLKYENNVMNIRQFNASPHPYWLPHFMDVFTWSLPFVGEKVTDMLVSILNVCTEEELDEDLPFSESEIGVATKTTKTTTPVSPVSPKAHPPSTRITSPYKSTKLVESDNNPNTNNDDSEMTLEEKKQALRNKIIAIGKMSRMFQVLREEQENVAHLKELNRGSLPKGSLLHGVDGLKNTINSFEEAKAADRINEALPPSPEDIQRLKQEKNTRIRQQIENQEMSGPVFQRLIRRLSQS

[27] = ADAM10 inhibitors, peptide cleavage, dose response, biochemical, QFRET (AID 743254);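 further: ADAM10 enzyme with the DM2 quenched FRET peptide as substrate; EDANS fluorescence gain as the protease cuts the substrate; inhibitor potency against ADAM10 proteolytic activity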
[28] = molecular target: ATP-dependent molecular chaperone HSP82 (Candida albicans (strain WO-1) (Yeast), UniProt C4YTQ8); assay: loss of DOC-induced GRE-beta-galactosidase reporter signal, dose response, Hsp90 inhibitor project, S. cerevisiae, luminescence (AID 2400); assay type: functional, cell-based;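 further: beta-galactosidase luminescence from glucocorticoid response element reporter as proxy for Hsp90 function; inhibitor potency where signal loss means Hsp90 inhibition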
[29] = C. albicans growth with fluconazole, confirmation, fluorescence, retest (AID 2467); assay type: functional, cell-based
[30] = molecular target: Disintegrin and metalloproteinase domain-containing protein 17 (Homo sapiens, UniProt P78536); assay: ADAM17 protease inhibitors, dose response, counter-screen for ADAM10 exosite inhibitor project, biochemical, quenched FRET substrate (AID 743253)
[31] = HEK293T cell cytotoxicity, dose response, cytotoxicity control, CellTiter-Glo luminescence, cherry-picked samples, set 4 (AID 743441); assay type: functional, cell-based; settings: HEK293
[32] = cytotoxicity in HepG2 cells, dose response, cytotoxicity control, cell-based, CellTiter-Glo luminescence, cherry-pick, set 4 (AID 743480); assay type: functional

T4 sequence (P02675 whole entry, the tested form may be a part): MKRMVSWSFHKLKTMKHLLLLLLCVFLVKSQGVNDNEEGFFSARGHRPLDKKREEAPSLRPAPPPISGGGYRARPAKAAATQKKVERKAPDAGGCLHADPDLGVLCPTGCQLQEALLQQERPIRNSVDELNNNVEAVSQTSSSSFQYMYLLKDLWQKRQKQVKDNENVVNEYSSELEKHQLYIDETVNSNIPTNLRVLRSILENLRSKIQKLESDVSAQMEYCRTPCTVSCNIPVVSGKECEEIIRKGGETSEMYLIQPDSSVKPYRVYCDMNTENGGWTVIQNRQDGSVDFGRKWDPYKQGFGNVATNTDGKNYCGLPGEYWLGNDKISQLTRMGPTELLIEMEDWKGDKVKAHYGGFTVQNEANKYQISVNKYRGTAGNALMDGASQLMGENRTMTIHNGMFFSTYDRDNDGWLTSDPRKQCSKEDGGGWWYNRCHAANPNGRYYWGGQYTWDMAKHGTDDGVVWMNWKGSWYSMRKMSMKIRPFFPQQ
T2 sequence (P49327 whole entry, the tested form may be a part): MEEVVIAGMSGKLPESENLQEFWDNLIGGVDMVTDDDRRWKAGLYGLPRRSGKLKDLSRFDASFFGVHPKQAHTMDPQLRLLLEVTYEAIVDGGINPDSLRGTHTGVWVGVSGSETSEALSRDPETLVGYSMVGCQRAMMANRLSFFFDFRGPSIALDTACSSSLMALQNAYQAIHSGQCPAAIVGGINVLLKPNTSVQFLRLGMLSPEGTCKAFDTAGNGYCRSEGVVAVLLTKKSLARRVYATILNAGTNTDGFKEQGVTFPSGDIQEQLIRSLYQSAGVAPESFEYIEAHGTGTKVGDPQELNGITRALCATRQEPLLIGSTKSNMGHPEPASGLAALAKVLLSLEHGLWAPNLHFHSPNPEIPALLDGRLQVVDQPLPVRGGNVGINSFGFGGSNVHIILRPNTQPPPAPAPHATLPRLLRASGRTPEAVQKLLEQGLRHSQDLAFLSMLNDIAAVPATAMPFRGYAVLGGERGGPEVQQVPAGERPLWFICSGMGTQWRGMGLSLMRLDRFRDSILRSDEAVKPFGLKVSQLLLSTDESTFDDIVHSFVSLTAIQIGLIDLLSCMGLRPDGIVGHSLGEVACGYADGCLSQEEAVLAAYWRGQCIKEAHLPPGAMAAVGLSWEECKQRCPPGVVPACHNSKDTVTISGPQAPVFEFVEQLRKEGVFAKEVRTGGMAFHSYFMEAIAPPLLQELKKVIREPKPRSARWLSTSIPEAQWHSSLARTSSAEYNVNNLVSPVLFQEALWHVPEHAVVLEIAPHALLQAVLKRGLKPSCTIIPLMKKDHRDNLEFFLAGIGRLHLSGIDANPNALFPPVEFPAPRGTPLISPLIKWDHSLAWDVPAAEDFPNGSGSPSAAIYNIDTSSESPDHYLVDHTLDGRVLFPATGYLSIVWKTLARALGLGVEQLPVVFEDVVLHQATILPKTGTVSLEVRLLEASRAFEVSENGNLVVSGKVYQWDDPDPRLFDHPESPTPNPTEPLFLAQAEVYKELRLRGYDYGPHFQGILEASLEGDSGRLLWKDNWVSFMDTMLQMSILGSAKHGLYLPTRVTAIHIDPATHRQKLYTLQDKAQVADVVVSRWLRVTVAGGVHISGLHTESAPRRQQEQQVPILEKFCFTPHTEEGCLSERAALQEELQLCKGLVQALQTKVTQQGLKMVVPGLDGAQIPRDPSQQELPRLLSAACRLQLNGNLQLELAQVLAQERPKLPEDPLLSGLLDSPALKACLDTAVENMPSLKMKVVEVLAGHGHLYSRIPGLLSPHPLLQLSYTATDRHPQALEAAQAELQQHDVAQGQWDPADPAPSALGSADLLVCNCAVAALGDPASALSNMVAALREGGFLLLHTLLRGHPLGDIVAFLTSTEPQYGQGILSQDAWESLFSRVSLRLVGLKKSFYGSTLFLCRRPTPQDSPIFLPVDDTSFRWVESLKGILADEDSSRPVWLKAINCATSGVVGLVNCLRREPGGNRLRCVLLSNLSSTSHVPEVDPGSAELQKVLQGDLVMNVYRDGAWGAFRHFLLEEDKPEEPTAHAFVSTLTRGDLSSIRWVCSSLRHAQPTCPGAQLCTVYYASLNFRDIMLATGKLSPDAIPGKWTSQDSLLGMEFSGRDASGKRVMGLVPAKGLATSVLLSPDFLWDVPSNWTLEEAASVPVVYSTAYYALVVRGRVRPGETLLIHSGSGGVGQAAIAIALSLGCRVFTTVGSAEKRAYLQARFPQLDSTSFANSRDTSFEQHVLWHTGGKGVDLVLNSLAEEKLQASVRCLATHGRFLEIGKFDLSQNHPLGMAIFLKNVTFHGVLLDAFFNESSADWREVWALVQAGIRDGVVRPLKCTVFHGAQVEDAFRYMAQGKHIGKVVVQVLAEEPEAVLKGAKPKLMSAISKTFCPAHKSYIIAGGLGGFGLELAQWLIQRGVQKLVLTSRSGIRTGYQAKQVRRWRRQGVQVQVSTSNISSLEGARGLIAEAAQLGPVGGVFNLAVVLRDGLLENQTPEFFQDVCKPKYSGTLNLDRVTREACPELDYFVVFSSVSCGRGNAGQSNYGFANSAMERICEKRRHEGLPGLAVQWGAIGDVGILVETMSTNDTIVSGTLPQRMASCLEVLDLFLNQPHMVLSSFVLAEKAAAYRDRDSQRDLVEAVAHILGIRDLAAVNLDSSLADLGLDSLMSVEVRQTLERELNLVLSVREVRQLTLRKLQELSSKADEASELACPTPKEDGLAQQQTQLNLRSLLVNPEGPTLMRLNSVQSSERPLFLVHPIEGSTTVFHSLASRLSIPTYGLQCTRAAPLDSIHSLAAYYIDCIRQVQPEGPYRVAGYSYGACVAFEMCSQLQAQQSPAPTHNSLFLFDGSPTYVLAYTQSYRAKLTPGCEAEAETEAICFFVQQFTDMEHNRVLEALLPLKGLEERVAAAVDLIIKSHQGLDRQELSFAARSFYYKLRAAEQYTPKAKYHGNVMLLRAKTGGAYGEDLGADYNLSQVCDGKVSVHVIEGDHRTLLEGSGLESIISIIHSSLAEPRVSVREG
Sequence of ATP-dependent molecular chaperone HSP82 (C4YTQ8 whole entry): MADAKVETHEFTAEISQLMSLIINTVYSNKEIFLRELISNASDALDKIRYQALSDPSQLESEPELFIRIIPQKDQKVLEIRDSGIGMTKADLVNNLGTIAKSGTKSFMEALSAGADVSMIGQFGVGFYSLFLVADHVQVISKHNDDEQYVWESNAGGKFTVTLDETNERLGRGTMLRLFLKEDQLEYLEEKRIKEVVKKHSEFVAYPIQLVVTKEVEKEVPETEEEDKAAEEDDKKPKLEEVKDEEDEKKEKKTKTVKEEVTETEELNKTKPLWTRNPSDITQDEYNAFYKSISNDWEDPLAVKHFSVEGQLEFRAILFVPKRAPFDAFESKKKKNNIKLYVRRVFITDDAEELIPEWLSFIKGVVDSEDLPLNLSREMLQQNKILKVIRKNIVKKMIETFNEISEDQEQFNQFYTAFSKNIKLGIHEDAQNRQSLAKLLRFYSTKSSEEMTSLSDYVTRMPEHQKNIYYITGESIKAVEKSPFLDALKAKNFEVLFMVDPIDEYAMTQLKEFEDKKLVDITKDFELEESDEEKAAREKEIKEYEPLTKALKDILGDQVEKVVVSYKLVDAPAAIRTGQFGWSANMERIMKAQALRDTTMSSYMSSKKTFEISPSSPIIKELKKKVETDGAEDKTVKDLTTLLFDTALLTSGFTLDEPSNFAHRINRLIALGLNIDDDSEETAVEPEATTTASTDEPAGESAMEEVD
Sequence of Protein Tat (P04608 whole entry): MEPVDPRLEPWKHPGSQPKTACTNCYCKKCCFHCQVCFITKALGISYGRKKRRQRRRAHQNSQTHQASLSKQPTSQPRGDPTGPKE
Sequence of Cytochrome P450 3A4 (P08684 whole entry): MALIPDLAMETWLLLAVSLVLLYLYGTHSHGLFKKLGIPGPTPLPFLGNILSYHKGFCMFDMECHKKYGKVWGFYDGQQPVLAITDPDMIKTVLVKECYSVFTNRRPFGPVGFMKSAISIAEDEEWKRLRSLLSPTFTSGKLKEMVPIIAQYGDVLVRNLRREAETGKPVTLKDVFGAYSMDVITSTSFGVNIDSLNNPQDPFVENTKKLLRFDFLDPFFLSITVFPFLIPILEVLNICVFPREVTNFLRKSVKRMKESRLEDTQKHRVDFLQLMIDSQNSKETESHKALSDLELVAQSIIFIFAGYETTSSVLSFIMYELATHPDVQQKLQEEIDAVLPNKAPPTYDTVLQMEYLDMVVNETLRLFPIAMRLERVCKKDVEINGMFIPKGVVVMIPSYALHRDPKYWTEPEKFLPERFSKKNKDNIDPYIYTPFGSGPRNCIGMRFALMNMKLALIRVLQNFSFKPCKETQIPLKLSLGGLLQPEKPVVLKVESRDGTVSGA
Sequence of Kallikrein-7 (P49862 whole entry): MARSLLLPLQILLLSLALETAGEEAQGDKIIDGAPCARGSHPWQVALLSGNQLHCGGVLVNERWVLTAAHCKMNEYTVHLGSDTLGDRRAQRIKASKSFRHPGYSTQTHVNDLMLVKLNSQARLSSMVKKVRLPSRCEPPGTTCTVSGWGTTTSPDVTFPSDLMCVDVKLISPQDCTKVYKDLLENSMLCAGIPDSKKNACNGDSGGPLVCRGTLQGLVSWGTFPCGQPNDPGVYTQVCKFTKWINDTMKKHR
Sequence of Paired box protein Pax-8 (Q06710 whole entry): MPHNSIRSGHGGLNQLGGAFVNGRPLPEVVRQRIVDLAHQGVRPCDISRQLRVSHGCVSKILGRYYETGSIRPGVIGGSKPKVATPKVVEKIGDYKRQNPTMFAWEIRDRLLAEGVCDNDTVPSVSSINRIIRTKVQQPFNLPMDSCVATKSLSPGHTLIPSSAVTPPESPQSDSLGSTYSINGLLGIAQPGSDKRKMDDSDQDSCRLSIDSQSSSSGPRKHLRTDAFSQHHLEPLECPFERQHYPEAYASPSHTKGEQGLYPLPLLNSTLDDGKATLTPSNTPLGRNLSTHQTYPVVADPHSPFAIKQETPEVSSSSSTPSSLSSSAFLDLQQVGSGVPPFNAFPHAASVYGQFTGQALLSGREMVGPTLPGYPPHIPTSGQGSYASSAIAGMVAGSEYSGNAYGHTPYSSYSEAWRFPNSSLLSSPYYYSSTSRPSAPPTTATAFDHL

SMILES: CC1CCCCN1Cc1c(O)ccc2c(=O)c(-c3nc4ccccc4s3)coc12 (stereo unspecified)
AC50 [1]: 40.4 µM (active)
AC50 (cells [2]): 47 µM (active)
AC50 (cells [3]): 44.8 µM (active)

SMILES: COc1ccc2c(c1)C(C)=CC(C)(C)N2S(=O)(=O)c1ccc(Br)cc1
AC50 [4]: 4.64 µM (active)
AC50 [5]: 8.49 µM (active)
AC50 [6]: 8.79 µM (active)
AC50 [7]: 5.89 µM (active)
AC50 [8]: 75.6 µM (active)
EC50 [9]: 1.05 µM (active)
AC50 [10]: 16 µM (active)
AC50 [11]: 5.9 µM (active)
AC50 (Paired box protein Pax-8): 7.63 µM (active)
EC50 [12]: 2.06 µM (active)
AC50 [13]: 63 µM (active)
AC50 [14]: 12 µM (active)
AC50 [15]: 15.3 µM (active)

AC50 (Cytochrome P450 3A4): 25.1 µM (inconclusive)
EC50 (Kallikrein-7): 13.1 µM (inactive)
SMILES: CCN(CC)Cc1c(O)ccc2c(=O)c(Oc3ccccc3OC)coc12

IC50 [16]: > 100 µM (active)
IC50 (Protein Tat): > 100 µM (active)
SMILES: CCOC(=O)c1cc(NC(=O)N2CCCc3ccccc32)c(C)nc1C

IC50 [17]: 6.94 µM (active)
IC50 (Fatty acid synthase [18]): 12.3 µM (active)
IC50 (Fatty acid synthase [19]): 13.5 µM (active)
IC50 [20]: 10.1 µM (not active)
IC50 (Fibrinogen beta chain [21]): > 83.3 µM (inactive)
IC50 (Fibrinogen beta chain [22]): > 83.3 µM (inactive)
SMILES: O=C(Nc1ccc(Cl)cc1)c1csc(-c2ccccc2)n1

SMILES: COCCNC(=O)c1ccc2c(c1)CCN2S(C)(=O)=O
IC50 [23]: > 83.3 µM (inactive)
IC50 [24]: > 109 µM (inactive)

SMILES: Cc1cc(C)c(-c2cc(NC(=O)COC(=O)c3ccc(C#N)cc3)n(-c3ccccc3)n2)cc1C
EC50 [25]: > 150 µM (inactive)
EC50 [26]: > 180 µM (inactive)
IC50 [27]: > 69.5 µM (inactive)
EC50 [28]: > 160 µM (inactive)
EC50 [29]: 0.092 µM (active)
IC50 [30]: > 69.5 µM (inactive)

SMILES: CCn1c(S)nnc1-c1cc(-c2ccc(OC(C)C)cc2)nc2ccccc12
AC50 [31]: > 52 µM (inactive)
AC50 [32]: > 52 µM (inactive)
